Experimental data taken from patent publication US20230150951A1, “2,5- OR 2,6-DISUBSTITUTED HYDROQUINONE DERIVATIVES WITH AT LEAST ONE CARBOXY, SULFO OR AMIDO GROUP USEFUL AS MEDICAMENTS” (OM PHARMA SA, priority 2020, published 2023).
Values after ≈ are worked out from the molar mass of the structure shown.

How the values were obtained:
[1] = physchem; details: water
[2] = test system: ARPE-19 cells; assay: ROS and cytokine/VEGF mRNA production by ARPE-19 monolayer cells in non-diabetic and diabetic milieu; type: cell-based, human; details: ARPE19 monolayer; for ROS: ROS % to 25 mM D-Glucose; for IL-1β R.Q. mRNA / IL-6 R.Q. mRNA / IL-18 R.Q. mRNA / TNFα R.Q. mRNA / VEGF R.Q. mRNA: relative change vs 25 mM D-Gluc
Experimental: Outer Blood Retinal Barrier conditions: human retinal pigment epithelial cells (RPE) cultures ARPE-19, a spontaneously immortalised human RPE cell line were obtained from American Type Culture Collection (Manassas, Va., USA). ARPE-19 cells and they were cultured in euglycaemic conditions (D-glucose (D-Glc), 5.5 mmol/L) and hyperglycaemic conditions (D-glucose, 25 mmol/L) for 18 days at 37° C. under 5% (vol./vol.) CO2 in medium (DMEM/F12) supplemented with 10% (vol./vol.) FBS (Hyclone; Thermo Fisher Scientific, UT, USA) and 1% (vol./vol.) penicillin/streptomycin (Hyclone; Thermo Fisher Scientific). ARPE-19 cells from passage 20 were used and the medium changed every 3-4 days. For permeability studies, ARPE-19 cells were seeded at 400,000 cells/ml (80,000 RPE cells/well) in 0.33 cm^2 HTS-Transwells (Costar; Corning, N.Y., USA). For real-time PCR, western blot analysis and immunofluorescence cells are seeded at 20,000 cells/ml.
Experimental conditions and treatments: apart from the euglycemic condition, eighteen different conditions were tested in cells cultured under 25 mmol/L D-glucose:
• Proinflammatory cytokines were evaluated in ARPE-19 cells by RT-PCR and mRNA for IL-6, TNF-α, IL-1β, IL-18, VEGF, IL-10, FGF were measured using the double delta CT method 2-ΔΔCT with Cts values for the gene of interest and the endogenous human B-actin to obtain ΔCT; mRNA values were expressed as relative change with respect to the condition 25 mM D-Gluc. (ref: Livak K J, Analysis of Relative Gene Expression Data Using Real-Time Quantitative PCR and the 2-ΔΔCT Method, Methods, 2001, 25(4), 402-408, doi 10.1006/meth.2001.1262) • ROS production was evaluated using Cell Biolabs' OxiSelect™ Intracellular ROS Assay (Green Fluorescence) (Bionova, Madrid, Spain). The assay employs the cell-permeable fluorogenic probe 2′, 7′-Dichlorodihydrofluorescin diacetate (DCFH-DA), oxidized to highly fluorescent 2′, 7′-Dichlorodihydrofluorescein (DCF) by cellular ROS. • Endothelin-1, PDGF and VCAM-1 expression was analyzed in HREC monolayers by immunohistochemical analysis and by RT-PCR. • TJ expression (ZO) is analyzed in ARPE-19 and HREC monolayers by immunohistochemical analysis.

[3] = test system: bleomycin induced pulmonary fibrosis; assay: Bleomycin induced pulmonary fibrosis, 21 days; type: in vivo, mice; details: day 21; pirfenidone 100 mg/kg, IVc-059a 15 mg/kg
Experimental: A total of 40 male Balb/c mice aged 8-10 weeks were used for the study.
Mice were anesthetized using an IP injection of xylazine and ketamine. Once an appropriate plane of anaesthesia was achieved, animals had 1.0 U/kg bleomycin sulphate instilled via intratracheal route. The total volume of liquid was 50 μL.
Dosing of IV and positive control (pirfenidone) started 24 hours after bleomycin instillation.
Drug solution was formulated immediately prior to dosing. For a dose of 15 mg/kg (enough for 12, 30 g mice) 4.5 mg of compound was weighed out. 75 μl (5%) DMSO added and mixed until drug is in solution. 150 μl (10%) solutol added and vortexed gently, 150 μl (10%) PEG400 added and vortexed gently. 1000 μl PBS (pH7) was added and matrix was measured to ensure pH 7.0 was maintained. Remaining PBS (to a total of 1500 μl) was added. Compound remained in solution. […]
Ashcroft score: Lungs from each animal were FFPE, sectioned and stained with H&E according to an in-house protocol. […] Each lung was scored using the Ashcroft grading system to measure degree of inflammation/fibrosis as per Hubner et al., 2008. […]
An entire lung from each animal was formalin fixed and stored in 70% ethanol. […] Percent area covered by trichrome staining was quantified using Qupath and ImageJ software.

[4] = 25 mM D-Gluc, compound 25 μg/mL
[5] = 25 mM D-Gluc, compound 50 μg/mL
[6] = diabetic milieu (25 mM D-Gluc + VEGF, TNF-α, IL-1β), compound 25 μg/mL
[7] = diabetic milieu (25 mM D-Gluc + VEGF, TNF-α, IL-1β), compound 50 μg/mL

For `O=C(O)c1cc(NC(=O)c2cc(O)cc(C(=O)Nc3ccc(O)c(C(=O)O)c3)c2O)ccc1O` [IIc-007a, 5-(3-(3-carboxy-4-hydroxyphenylaminocarbonyl)-2,5-dihydroxybenzamido)-2-hydroxy benzoic acid], the solubility [1] was 1800 µg/mL (≈ 3.84 mM), the ROS [2, 4] was 55 ± 6.4% and the “IL-1β R.Q. mRNA” value [2, 4] was 0.74 ± 0.26 R.Q. For the same compound, the “IL-6 R.Q. mRNA” value [2, 4] was 0.73 ± 0.00 R.Q, the “IL-18 R.Q. mRNA” value [2, 4] was 0.75 ± 0.09 R.Q and the “TNFα R.Q. mRNA” value [2, 4] was 0.57 ± 0.18 R.Q. The “VEGF R.Q. mRNA” value [2, 4] was 0.06 ± 0.01 R.Q, the ROS [2, 5] was 72 ± 11% and the “IL-1β R.Q. mRNA” value [2, 5] was 0.24 ± 0.11 R.Q. The “IL-6 R.Q. mRNA” value [2, 5] was 0.34 ± 0.08 R.Q, the “IL-18 R.Q. mRNA” value [2, 5] was 0.04 ± 0.00 R.Q and the “TNFα R.Q. mRNA” value [2, 5] was 0.45 ± 0.30 R.Q. For the same compound, the “VEGF R.Q. mRNA” value [2, 5] was 0.12 ± 0.03 R.Q, the ROS [2, 6] was 47 ± 7.6 % and the “IL-1β R.Q. mRNA” value [2, 6] was 41.03 ± 17.57 R.Q. The “IL-6 R.Q. mRNA” value [2, 6] was 10.83 ± 6.90 R.Q, the “IL-18 R.Q. mRNA” value [2, 6] was 0.07 ± 0.01 R.Q and the “TNFα R.Q. mRNA” value [2, 6] was 6.31 ± 0.06 R.Q. The “VEGF R.Q. mRNA” value [2, 6] was 0.11 ± 0.01 R.Q, the ROS [2, 7] was 74 ± 38 % and the “IL-1β R.Q. mRNA” value [2, 7] was 11.39 ± 6.52 R.Q. For the same compound, the “IL-6 R.Q. mRNA” value [2, 7] was 1.50 ± 1.19 R.Q, the “IL-18 R.Q. mRNA” value [2, 7] was 0.03 ± 0.00 R.Q and the “TNFα R.Q. mRNA” value [2, 7] was 4.24 ± 0.77 R.Q. For the same compound, the “VEGF R.Q. mRNA” value [2, 7] was 0.13 ± 0.02 R.Q.

For `O=C(O)c1cc(NC(=O)c2cc(O)c(C(=O)Nc3ccc(O)c(C(=O)O)c3)cc2O)ccc1O` [Ic-007a, 5-(4-(3-carboxy-4-hydroxyphenylaminocarbonyl)-2,5-dihydroxybenzamido)-2-hydroxy benzoic acid], the ROS [2, 4] was 32 ± 15%, the “IL-1β R.Q. mRNA” value [2, 4] was 0.12 ± 0.01 R.Q and the “IL-6 R.Q. mRNA” value [2, 4] was 0.52 ± 0.49 R.Q. The “IL-18 R.Q. mRNA” value [2, 4] was 0.45 ± 0.18 R.Q, the “TNFα R.Q. mRNA” value [2, 4] was 0.27 ± 0.07 R.Q and the “VEGF R.Q. mRNA” value [2, 4] was 0.09 ± 0.02 R.Q. For the same compound, the ROS [2, 5] was 26 ± 4.6%, the “IL-1β R.Q. mRNA” value [2, 5] was 0.15 ± 0.03 R.Q and the “IL-6 R.Q. mRNA” value [2, 5] was 0.20 ± 0.07 R.Q. For the same compound, the “IL-18 R.Q. mRNA” value [2, 5] was 0.07 ± 0.01 R.Q, the “TNFα R.Q. mRNA” value [2, 5] was 0.59 ± 0.33 R.Q and the “VEGF R.Q. mRNA” value [2, 5] was 0.12 ± 0.03 R.Q. For the same compound, the ROS [2, 6] was 33 ± 4.8 %, the “IL-1β R.Q. mRNA” value [2, 6] was 12.21 ± 1.46 R.Q and the “IL-6 R.Q. mRNA” value [2, 6] was 0.52 ± 0.49 R.Q. The “IL-18 R.Q. mRNA” value [2, 6] was 0.02 ± 0.00 R.Q, the “TNFα R.Q. mRNA” value [2, 6] was 11.26 ± 0.96 R.Q and the “VEGF R.Q. mRNA” value [2, 6] was 0.06 ± 0.02 R.Q. For the same compound, the ROS [2, 7] was 27 ± 13 %, the “IL-1β R.Q. mRNA” value [2, 7] was 10.66 ± 3.01 R.Q and the “IL-6 R.Q. mRNA” value [2, 7] was 3.28 ± 1.46 R.Q. The “IL-18 R.Q. mRNA” value [2, 7] was 0.02 ± 0.00 R.Q, the “TNFα R.Q. mRNA” value [2, 7] was 5.22 ± 3.96 R.Q and the “VEGF R.Q. mRNA” value [2, 7] was 0.17 ± 0.05 R.Q.

With `O=C(O)c1cc(O)cc(CS(=O)(=O)Cc2cc(O)cc(C(=O)O)c2O)c1O` [IVc-059a, 3-((2,5-Dihydroxy-3-carboxyphenyl)methylsulfonylmethyl)-2,5-dihydroxybenzoic acid] the ROS [2, 4] was 62 ± 9%, the “IL-1β R.Q. mRNA” value [2, 4] was 0.20 ± 0.05 R.Q and the “IL-6 R.Q. mRNA” value [2, 4] was 0.28 ± 0.11 R.Q. The “IL-18 R.Q. mRNA” value [2, 4] was 0.07 ± 0.01 R.Q, the “TNFα R.Q. mRNA” value [2, 4] was 0.27 ± 0.08 R.Q and the “VEGF R.Q. mRNA” value [2, 4] was 0.11 ± 0.01 R.Q. For the same compound, the ROS [2, 5] was 116 ± 12%, the “IL-1β R.Q. mRNA” value [2, 5] was 0.21 ± 0.13 R.Q and the “IL-6 R.Q. mRNA” value [2, 5] was 0.28 ± 0.11 R.Q. The “IL-18 R.Q. mRNA” value [2, 5] was 0.04 ± 0.01 R.Q, the “TNFα R.Q. mRNA” value [2, 5] was 0.27 ± 0.10 R.Q and the “VEGF R.Q. mRNA” value [2, 5] was 0.06 ± 0.03 R.Q. For the same compound, the ROS [2, 6] was 61 ± 40 %, the “IL-1β R.Q. mRNA” value [2, 6] was 20.81 ± 5.11 R.Q and the “IL-6 R.Q. mRNA” value [2, 6] was 5.84 ± 1.13 R.Q. For the same compound, the “IL-18 R.Q. mRNA” value [2, 6] was 0.03 ± 0.01 R.Q, the “TNFα R.Q. mRNA” value [2, 6] was 5.39 ± 1.01 R.Q and the “VEGF R.Q. mRNA” value [2, 6] was 0.04 ± 0.00 R.Q. The ROS [2, 7] was 159 ± 32%, the “IL-1β R.Q. mRNA” value [2, 7] was 27.76 ± 5.18 R.Q and the “IL-6 R.Q. mRNA” value [2, 7] was 9.78 ± 2.30 R.Q. For the same compound, the “IL-18 R.Q. mRNA” value [2, 7] was 0.01 ± 0.00 R.Q, the “TNFα R.Q. mRNA” value [2, 7] was 3.61 ± 1.82 R.Q and the “VEGF R.Q. mRNA” value [2, 7] was 0.20 ± 0.03 R.Q. The “Onset of fibrosis in mouse lung (Ashcroft score)” value [3] was “reduced the onset of fibrosis in mouse lung”.
